Measurements: patent US20140135310A1, “SULPHONAMIDE DERIVATIVES OF ALICYCLIC AMINES FOR THE TREATMENT OF CENTRAL NERVOUS SYSTEM DISEASES” (Adamed Sp. z o.o., priority 2011, published 2014)

How the values were obtained:
Type in all cases: cell-based
[1] = molecular target: D2 dopaminergic receptors (Homo sapiens, UniProt P14416); assay: Cellular functional assay, D2 dopaminergic receptors; conditions: for D2 ag [%]: agonism, percent of control specific agonist response (3 μM dopamine for control); for D2 ag [%] / D2 antag [%]: D2S (h), HEK-293 cells; for D2 antag [%]: antagonism, stimulus dopamine (30 nM); for Kb: apparent dissociation constant, modified Cheng Prusoff equation, read-out: D2 antag Kb
Description: (§1) The results are expressed as a percent of control specific agonist response ((measured specific response/control specific agonist response)×100) obtained in the presence of the test compounds.
(§2) The EC50 values (concentration producing a half-maximal specific response) and IC50 values (concentration causing a half-maximal inhibition of the control specific agonist response) were determined by non-linear regression analysis of the concentration-response curves generated with mean replicate values using Hill equation curve fitting (Y=D+[(A−D)/(1+(C/C50)nH)], where Y=specific response, D=minimum specific response, A=maximum specific response, C=compound concentration, and C50=EC50 or IC50, and nH=slope factor). This analysis was performed using a software developed at Cerep (Hill software) and validated by comparison with data generated by the commercial software SigmaPlot® 4.0 for Windows® (© 1997 by SPSS Inc.).
(§3) For the antagonists, the apparent dissociation constants (Kb) were calculated using the modified Cheng Prusoff equation (Kb=IC50/(1+(A/EC50A)), where A=concentration of reference agonist in the assay, and EC50A=EC50 value of the reference agonist).

[2] = molecular target: T1, hERG potassium channels (KCNH2 gene, expressed in CHO cells) (Homo sapiens, UniProt Q12809); assay: Ability to block hERG potassium channel (electrophysiology, IonWorks Quattro); conditions: % block of hERG current, test compound 1×10^−5 M
T1 construct: expressed in transfected cells; host or cells: CHO cells
Description: Moreover, the ability of the compounds of the invention to block potassium channel hERG was tested.
Ability to block hERG potassium channels was determined using the electrophysiological method and cloned hERG potassium channels (KCNH2 gene, expressed in CHO cells) as biological material. The effects were evaluated using IonWorks™ Quattro system (MDS-AT).
hERG current was elicited using a pulse pattern with fixed amplitudes (conditioning pre-pulse: −80 mV for 25 ms; test pulse: +40 mV for 80 ms) from a holding potential of 0 mV. hERG current was measured as a difference between the peak current at 1 ms after the test step to +40 mV and the steady-state current at the end of the step to +40 mV.
Data acquisition and analyses was performed using the IonWorks Quattro™ system operation software (version 2.0.2; Molecular Devices Corporation, Union City, Calif.). Data were corrected for leak current.
The hERG block was calculated as:
% Block=(1−ITA/IControl)×100%,
where IControl and ITA were the currents elicited by the test pulse in control and in the presence of a test article, respectively.
Concentration-response data for the blocks were fit to an equation of the following form:
% Block=% VC+{(% PC−% VC)−(% PC−% VC)/[1+([Test]/IC50)N]},

[3] = molecular target: D3 dopaminergic receptors (Homo sapiens, UniProt P35462); assay: Cellular functional assay, D3 dopaminergic receptors; conditions: for D3 ag [%]: agonism, percent of control specific agonist response (0.3 μM dopamine for control); for D3 ag [%] / D3 antag [%]: D3 (h), CHO cells; for D3 antag [%]: antagonism, stimulus dopamine (10 nM); for Kb: apparent dissociation constant, modified Cheng Prusoff equation, read-out: D3 antag Kb
Description: as §1, §2, §3

[4] = molecular target: T2, D4 dopaminergic receptors (Homo sapiens, UniProt P21917); assay: Cellular functional assay, D4 dopaminergic receptors; conditions: D4.4 (h), CHO cells; for D4 ag [%]: agonism, percent of control specific agonist response (300 nM dopamine for control); for D4 antag [%]: antagonism, stimulus dopamine (100 nM)
T2 sequence (P21917 1-419): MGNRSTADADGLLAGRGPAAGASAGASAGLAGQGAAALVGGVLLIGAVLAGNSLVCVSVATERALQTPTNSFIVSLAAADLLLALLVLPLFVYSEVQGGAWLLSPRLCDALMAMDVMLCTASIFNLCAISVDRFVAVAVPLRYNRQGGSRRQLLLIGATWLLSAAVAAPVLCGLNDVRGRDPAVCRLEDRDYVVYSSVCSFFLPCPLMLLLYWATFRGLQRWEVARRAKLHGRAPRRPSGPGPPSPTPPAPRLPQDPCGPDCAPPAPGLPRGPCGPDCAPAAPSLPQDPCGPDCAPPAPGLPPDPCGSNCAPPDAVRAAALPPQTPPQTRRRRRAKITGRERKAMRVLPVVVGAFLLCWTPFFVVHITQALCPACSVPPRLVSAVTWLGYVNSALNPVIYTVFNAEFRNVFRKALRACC
Description: as §1, §2, §3

[5] = molecular target: T3, 5-HT2C serotoninergic receptors (Homo sapiens, UniProt P28335); assay: Cellular functional assay, 5-HT2C serotoninergic receptors; conditions: for 5-HT2C ag [%]: agonist mode, percent of control specific agonist response; for 5-HT2C antag [%]: antagonist mode
T3 sequence (P28335 33-458): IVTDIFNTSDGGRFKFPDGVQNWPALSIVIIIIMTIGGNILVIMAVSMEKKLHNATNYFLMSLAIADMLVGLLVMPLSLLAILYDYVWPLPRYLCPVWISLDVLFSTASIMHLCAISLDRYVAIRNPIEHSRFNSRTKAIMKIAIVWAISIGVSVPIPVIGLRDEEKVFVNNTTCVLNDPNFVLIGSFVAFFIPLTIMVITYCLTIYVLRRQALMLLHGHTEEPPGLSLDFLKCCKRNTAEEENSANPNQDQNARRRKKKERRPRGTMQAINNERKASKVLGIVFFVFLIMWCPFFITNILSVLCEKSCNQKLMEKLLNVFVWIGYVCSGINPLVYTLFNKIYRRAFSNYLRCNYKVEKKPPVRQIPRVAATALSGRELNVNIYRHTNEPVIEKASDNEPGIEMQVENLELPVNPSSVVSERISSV
Description: as §1, §2, §3

[6] = molecular target: T4, 5-HT1A serotoninergic receptors (Homo sapiens, UniProt P08908); assay: Cellular functional assay, 5-HT1A serotoninergic receptors; conditions: for 5-HT1A ag [%]: agonist mode, percent of control specific agonist response
T4 sequence (P08908 1-422): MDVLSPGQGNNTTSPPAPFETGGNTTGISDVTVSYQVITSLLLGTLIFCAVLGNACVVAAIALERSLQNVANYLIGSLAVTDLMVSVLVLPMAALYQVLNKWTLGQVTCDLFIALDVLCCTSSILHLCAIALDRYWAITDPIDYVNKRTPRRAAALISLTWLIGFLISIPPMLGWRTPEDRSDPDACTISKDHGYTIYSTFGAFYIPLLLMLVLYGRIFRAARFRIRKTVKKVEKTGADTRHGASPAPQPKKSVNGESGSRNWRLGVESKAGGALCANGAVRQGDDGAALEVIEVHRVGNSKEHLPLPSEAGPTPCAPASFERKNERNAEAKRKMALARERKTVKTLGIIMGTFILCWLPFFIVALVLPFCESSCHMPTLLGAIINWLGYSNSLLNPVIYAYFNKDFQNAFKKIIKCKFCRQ
Description: as §1, §2, §3

Sequence of D3 dopaminergic receptors (P35462 whole entry): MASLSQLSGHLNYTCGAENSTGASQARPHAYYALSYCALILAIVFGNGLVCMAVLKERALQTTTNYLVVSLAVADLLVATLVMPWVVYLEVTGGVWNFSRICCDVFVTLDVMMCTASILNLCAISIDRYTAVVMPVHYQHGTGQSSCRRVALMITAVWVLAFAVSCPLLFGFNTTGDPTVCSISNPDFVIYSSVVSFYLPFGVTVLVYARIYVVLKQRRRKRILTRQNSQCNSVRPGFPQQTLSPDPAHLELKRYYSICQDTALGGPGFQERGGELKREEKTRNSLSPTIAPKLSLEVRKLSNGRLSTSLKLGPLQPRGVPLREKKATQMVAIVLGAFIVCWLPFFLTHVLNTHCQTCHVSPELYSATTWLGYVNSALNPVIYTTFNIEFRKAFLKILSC
Sequence of D2 dopaminergic receptors (P14416 whole entry): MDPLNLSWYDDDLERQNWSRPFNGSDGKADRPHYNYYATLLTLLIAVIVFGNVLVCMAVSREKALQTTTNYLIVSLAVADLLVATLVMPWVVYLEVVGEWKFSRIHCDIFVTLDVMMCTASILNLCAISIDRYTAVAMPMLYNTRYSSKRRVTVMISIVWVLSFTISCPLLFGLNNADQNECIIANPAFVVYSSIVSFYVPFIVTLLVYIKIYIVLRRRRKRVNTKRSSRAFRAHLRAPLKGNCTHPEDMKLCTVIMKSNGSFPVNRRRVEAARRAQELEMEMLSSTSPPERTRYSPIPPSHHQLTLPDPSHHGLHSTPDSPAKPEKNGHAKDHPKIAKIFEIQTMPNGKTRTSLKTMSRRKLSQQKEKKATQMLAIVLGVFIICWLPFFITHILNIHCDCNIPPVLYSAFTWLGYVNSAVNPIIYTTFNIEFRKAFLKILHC
T1 sequence (Q12809 whole entry): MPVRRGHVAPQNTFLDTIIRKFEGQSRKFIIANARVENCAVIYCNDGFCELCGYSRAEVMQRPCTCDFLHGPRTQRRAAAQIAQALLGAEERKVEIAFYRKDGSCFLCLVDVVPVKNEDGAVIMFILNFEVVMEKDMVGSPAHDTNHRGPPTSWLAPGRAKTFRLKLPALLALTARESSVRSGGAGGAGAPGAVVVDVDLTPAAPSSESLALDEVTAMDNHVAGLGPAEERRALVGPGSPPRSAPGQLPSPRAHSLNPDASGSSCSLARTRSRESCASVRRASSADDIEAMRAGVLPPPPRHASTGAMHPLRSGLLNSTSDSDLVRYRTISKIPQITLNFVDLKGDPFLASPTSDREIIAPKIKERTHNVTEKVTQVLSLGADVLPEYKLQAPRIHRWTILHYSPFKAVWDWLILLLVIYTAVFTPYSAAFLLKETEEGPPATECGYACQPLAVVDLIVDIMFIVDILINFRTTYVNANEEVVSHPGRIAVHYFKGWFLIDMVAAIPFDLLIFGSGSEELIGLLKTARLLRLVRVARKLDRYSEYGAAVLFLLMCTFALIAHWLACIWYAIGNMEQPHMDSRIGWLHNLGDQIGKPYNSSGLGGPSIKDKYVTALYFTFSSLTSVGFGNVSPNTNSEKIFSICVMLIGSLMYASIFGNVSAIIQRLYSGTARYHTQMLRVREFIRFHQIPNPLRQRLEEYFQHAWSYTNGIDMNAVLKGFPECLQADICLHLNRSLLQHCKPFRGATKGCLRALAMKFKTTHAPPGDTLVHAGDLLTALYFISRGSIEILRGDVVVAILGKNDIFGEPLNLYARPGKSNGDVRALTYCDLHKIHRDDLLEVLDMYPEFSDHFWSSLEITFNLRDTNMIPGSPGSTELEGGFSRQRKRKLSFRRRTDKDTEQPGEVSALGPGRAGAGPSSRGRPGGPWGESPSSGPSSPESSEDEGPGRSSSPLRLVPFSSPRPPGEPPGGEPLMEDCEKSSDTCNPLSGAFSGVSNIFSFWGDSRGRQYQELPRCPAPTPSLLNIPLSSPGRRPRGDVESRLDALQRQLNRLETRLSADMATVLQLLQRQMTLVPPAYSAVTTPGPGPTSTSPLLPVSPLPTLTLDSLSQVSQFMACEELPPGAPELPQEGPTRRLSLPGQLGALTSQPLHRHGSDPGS

SMILES	D2 ag [%] [1] [%]	D2 antag [%] [1] [%]	Kb [1] [nM]	hERG [%] [2] [%]	D3 ag [%] [3] [%]	D3 antag [%] [3] [%]	Kb [3] [nM]	D4 ag [%] [4] [%]	D4 antag [%] [4] [%]	5-HT2C ag [%] [5] [%]	5-HT2C antag [%] [5] [%]	5-HT1A ag [%] [6] [%]	5-HT1A antag [%] ([6]; antagonist mode)
O=S(=O)(NC1CCN(CCCc2noc3cc(F)ccc23)C1)c1ccc2ccccc2c1 (stereo not drawn) [Compound 21, N-[1-[3-(6-Fluoro-1,2-benzoxazol-3-yl)propyl]pyrrolidin-3-yl]naphthalene-2-sulphonamide]	6	98	1.6	3.3	−8	83	7.3						
O=S(=O)(NC1CCN(CCCc2noc3cc(F)ccc23)C1)c1cc2ccccc2s1 (stereo not drawn) [Compound 25, N-[1-[3-(6-Fluoro-1,2-benzoxazol-3-yl)propyl]pyrrolidin-3-yl]-benzothiophene-2-sulphonamide]	3	89	2.3	2.9	0	82	8						
O=S(=O)(NC1CCN(CCCc2noc3cc(F)ccc23)C1)c1csc2ccccc12 (stereo not drawn) [Compound 26, N-[1-[3-(6-Fluoro-1,2-benzoxazol-3-yl)propyl]pyrrolidin-3-yl]-benzothiophene-3-sulphonamide]	3	68		6.1				−4	88				
O=S(=O)(NC1CCN(CCCc2noc3cc(F)ccc23)CC1)c1cccc2ccccc12 [Compound 34, N-[1-[3-(6-Fluoro-1,2-benzoxazol-3-yl)propyl]-4-piperidine]-naphthalene-1-sulphonamide]				−1.1									
O=S(=O)(NC1CN(CCOc2cccc3c2OCCO3)C1)c1cccc2ccccc12 [Compound 94, N-[1-[2-(2,3-Dihydro-1,4-benzodioxan-8-yloxy)ethyl]azetidin-3-yl]-naphthalene-1-sulphonamide]	45	99		4.8	51	38		60	9	92	−57	41	90
CC(C)(C)c1ccc(S(=O)(=O)NCC2CN(CCOc3cccc4c3OCCO4)C2)cc1 [Compound 181, 4-tert-Butyl-N-[[1-[2-(2,3-dihydro-1,4-benzodioxin-5-yloxy)ethyl]azetidin-3-yl]methyl]benzenesulphonamide]										46	6	66	
O=S(=O)(NCC1CN(CCOc2cccc3c2OCCO3)C1)c1ccc(Cl)c(Cl)c1 [Compound 183, 3,4-Dichloro-N-[[1-[2-(2,3-dihydro-1,4-benzodioxin-5-yloxy)ethyl]azetidin-3-yl]methyl]benzenesulphonamide]	8	53								50	12	71	
Cc1c(S(=O)(=O)N[C@H]2CCN(CCCc3noc4cc(F)ccc34)C2)sc2ccc(F)cc12 [Compound 203, 5-Fluoro-N-[(3S)-1-[3-(6-fluoro-1,2-benzoxazol-3-yl)propyl]pyrrolidin-3-yl]-3-methyl-benzothiophene-2-sulphonamide]	0	80			11	65				1			
Cc1ccc2sc(S(=O)(=O)N[C@@H]3CCN(CCCc4noc5cc(F)ccc45)C3)cc2c1 [Compound 228, N-[(3R)-1-[3-(6-Fluoro-1,2-benzoxazol-3-yl)propyl]pyrrolidin-3-yl]-5-methyl-benzothiophene-2-sulphonamide]	−1	94			−15	98				0			
COc1ccc2cc(S(=O)(=O)N[C@@H]3CCN(CCCc4noc5cc(F)ccc45)C3)ccc2c1 [Compound 230, N-[(3R)-1-[3-(6-Fluoro-1,2-benzoxazol-3-yl)propyl]pyrrolidin-3-yl]-6-methoxy-naphthalene-2-sulphonamide]	3	94			0	89				−2			
